# From patent US20230293698A1, “METAL-ORGANIC FRAMEWORKS DELIVER SMALL MOLECULES AND BIOMACROMOLECULES FOR CANCER IMMUNOTHERAPY” (The University of Chicago, priority 2020, published 2023)
# What was measured:
# [1] = Toxicity after intravenous injection; type: in vivo; settings: C57BL/6 mice, biweekly, total of 4 doses
# [2] = test system: MC38 tumor; settings: intratumoral injection, Cy5 label
# Excerpt: The images were processed and analyzed by software sold under the tradename LIVING IMAGE® 4.7.2 (PerkinElmer, Waltham, Massachusetts, United States of America).
Compound,toxicity (bodyweight gains) [1],fluorescence signal retention in tumor [2]
Ir(DBB)[dF(CF3)ppy]2^+ [DBB^F-Ir],did not cause toxicity,
"Nc1nc2c(ncn2[C@@H]2O[C@@H]3COP(=O)(O)O[C@H]4[C@@H](O)[C@H](n5cnc6c(N)ncnc65)O[C@@H]4COP(=O)(O)O[C@@H]2[C@@H]3O)c(=O)[nH]1 [cGAMP, cyclic guanosine monophosphate-adenosine monophosphate]",,diffused and disappeared quickly
